Measured values taken from patent US11497819B2, “PSMA ligands for imaging and endoradiotherapy” (priority 2017, dated 2022).
Where “and” joins values, the source holds several entries; their conditions need not be identical. Equal entries are not always repeated.

Tests used:
[1] = Lipophilicity, logP in n-octanol/PBS of radiolabeled PSMA inhibitors; assay type: physicochemical; conditions: pH 7.4; distribution coefficient in n-octanol/PBS, radiolabeled inhibitor; mean ± SD (n = 6); read-out: logP
Procedure: The radiolabeled PSMA inhibitor (0.5 to 1.0 MBq) dissolved in PBS (500 μL, pH=7.4), was added to n-octanol (500 μL) in a reaction vial (1.5 mL), which was rigorously vortexed for 3 min (n=6). For quantitative phase separation, the mixture was centrifuged at 6,000 g for 5 min (Biofuge 15, Heraus Sepatech, Osterode, Germany). The activity from samples of each phase (100 μL) were measured in a γ-counter to obtain the log P(o/w) value.

LNCaP-tumor xenograft = assay: Biodistribution in LNCaP-tumor xenograft bearing CB-17 SCID mice; assay type: in vivo; conditions: ^177Lu-labeled, n = 4
Procedure: All animal experiments were carried out in accordance with the general animal welfare regulations in Germany (Deutsches Tierschutzgesetz, approval #55.2-1-54-2532-71-13). For the tumor model, LNCaP cells (approx. 10^7 cells) were suspended in serum-free DMEM-F12 medium and Matrigel (1/1; v/v) (BD Biosciences, Germany) and inoculated onto the right shoulder of male, 6 to 8 weeks old CB-17 SCID mice (Charles River Laboratories, Sulzfeld, Germany). Animals were used after the tumor size reached 4 to 8 mm in diameter for experiments.

LNCaP cells [2] = assay: Externalization kinetics / cell retention in LNCaP cells; assay type: cell-based; conditions: 60 min incubation, ^177Lu-labeled
Procedure: FIG. 2: Externalization kinetics of selected ^177Lu-labeled PSMA inhibitors from LNCaP cells. […] Then, the supernatant was removed and once washed with DMEM-solution (5% BSA, 37° C.). Afterwards, either A) only DMEM-solution (5% BSA) or B) blockade DMEM-solution (5% BSA, 10 μm 2-PMPA) were added for replacement. The total cellular internalized activity at t=0 min was corrected for non-specific binding (10 μm 2-PMPA) and normalized to 100%. All data are expressed as mean±SD (n=3).
Externalization kinetics of the radiolabeled PSMA inhibitors were determined using LNCaP cells, which were similarly prepared as described for the internalization assay. After an initial cell-washing step with DMEM-F12-solution (5% BSA), the cells were left to recondition for at least 15 min at 37° C. Subsequently, the LNCaP cells were incubated with the respective radiolabeled peptide (25 μL, 10.0 nm) at 37° C. for 60 min in a total volume of 250 μL in each well. After 60 min, the supernatant with the unbound free fraction was removed and measured in a γ-counter for the calculation of total added radioactivity. An acid wash step was avoided to warrant enzyme integrity during the following externalization and recycling study. To determine the recycling rate, fresh DMEM-F12-solution (250 μL, 5% BSA) was given to the cells to allow re-internalization. In contrast, re-internalization was inhibited by addition of DMEM-F12-solution containing 2-PMPA (225 μL DMEM-F12 (5% BSA) and 25 μL of 100 μm 2-PMPA-solution (PBS)). The cells were then incubated for 0, 20, 40 and 60 min at 37° C. Consequently, the supernatant was removed and the cells were washed with ice-cold HBSS (250 μL). The combination of the supernatant and the volume of the concomitant washing step with HBSS (200 μL) account for externalized radioligand at the investigated time point. Further, the cells were then washed with ice-cold 2-PMPA HBSS solution (250 μL, 10 μm) twice, combined and thus represented the fraction of membrane-bound radioligand. The determination of the internalized fraction was achieved by lysis as described for the internalization assay with NaOH (250 μL, 1.0 m). The activities of free, externalized, membrane-bound and internalized radioligand were quantified in a γ-counter.

LNCaP cells [3] = assay: Internalization into LNCaP cells, relative cellular uptake to ([^125I]I-BA)KuE; assay type: cell-based; conditions: c = 1.0 nM ^177Lu-labeled inhibitor, 37° C., 60 min, corrected for non-specific binding (10 μM 2-PMPA), mean ± SD (n = 3)
Procedure: PSMA-positive LNCAP cells (300265; Cell Lines Service GmbH) were cultivated in Dulbecco modified Eagle medium/Nutrition Mixture F-12 (1/1) (DMEM-F12, Biochrom) supplemented with fetal calf serum (FCS) (10%, Biochrom) and kept at 37° C. in a humidified CO2 atmosphere (5%). One day (24 h±2 h) prior to all experiments with LNCaP cells, the cultivated cells were harvested using a mixture of trypsin/ethylendiaminetetraacetate (0.05%/0.02%) and PBS and centrifuged. After centrifugation, the supernatant was disposed and the cell pellet resuspended in culture medium. Afterwards, cells were counted with a hemocytometer (Neubauer) and seeded in 24-well plates.
Subsequent to the removal of the culture medium, the cells were washed once with DMEM-F12-solution (500 μL, 5% BSA) and left to equilibrate for at least 15 min at 37° C. in DMEM-F12-solution (200 μL, 5% BSA). Afterwards, each well was treated with either DMEM-F12-solution (25 μL, 5% BSA) or 2-PMPA-solution (25 μL, 100 μm) for blockade. […] The experiment was terminated by placing the 24-well plate on ice for 3 min and the consecutive removal of the medium. Each well was rinsed with HBSS (250 μL) and the fractions from these first two steps combined, representing the amount of free radioligand. Removal of surface bound activity was accomplished by incubation of the cells with ice-cold 2-PMPA-solution (250 μL, 10 μm in PBS) for 5 min and subsequent rinsing with ice-cold PBS (250 μL). The internalized activity was determined through incubation of the cells in NaOH (250 μL, 1.0 m) and the combination with the fraction of the subsequent washing step with again NaOH (250 μL, 1.0 m). Each experiment (control and blockade) was performed in triplicate for each time point. Free, surface bound and internalized activity was quantified in a γ-counter.

[4] = 1 h p.i., listed as [^177Lu]PSMA I&T

For O=C(O)CC[C@H](NC(=O)N[C@@H](CCCCNC(=O)CCCCCCC(=O)NCCCC[C@@H](NC(=O)[C@@H](Cc1ccccc1)NC(=O)[C@@H](Cc1ccc(O)c(I)c1)NC(=O)CCC(C(=O)O)N1CCN(CC(=O)O)CCN(CC(=O)O)CCN(CC(=O)O)CC1)C(=O)O)C(=O)O)C(=O)O (stereo partly shown) [PSMA I&T, DOTAGA-y(3-I)fk(Sub-KuE), reference compound], the logP [1] was -4.12 ± 0.11, the adrenal gland (LNCaP-tumor xenograft; 1 h p.i.) was 6.25 ± 2.59 % ID/g and the blood (LNCaP-tumor xenograft; 1 h p.i.) was 0.37 ± 0.10 % ID/g. The bone (LNCaP-tumor xenograft; 1 h p.i.) was 0.14 ± 0.04 % ID/g, the brain (LNCaP-tumor xenograft; 1 h p.i.) was 0.03 ± 0.01 % ID/g and the heart (LNCaP-tumor xenograft; 1 h p.i.) was 0.58 ± 0.15 % ID/g. For the same compound, the intestine (LNCaP-tumor xenograft; 1 h p.i.) was 0.59 ± 0.50 % ID/g, the liver (LNCaP-tumor xenograft; 1 h p.i.) was 0.37 ± 0.10 % ID/g and the lung (LNCaP-tumor xenograft; 1 h p.i.) was 1.32 ± 0.45 % ID/g. For the same compound, the muscle (LNCaP-tumor xenograft; 1 h p.i.) was 0.18 ± 0.07 % ID/g, the pancreas (LNCaP-tumor xenograft; 1 h p.i.) was 1.30 ± 1.39 % ID/g and the spleen (LNCaP-tumor xenograft; 1 h p.i.) was 13.8 ± 4.59 % ID/g. For the same compound, the stomach (LNCaP-tumor xenograft; 1 h p.i.) was 0.29 ± 0.06 % ID/g, the kidney (LNCaP-tumor xenograft; [4]) was 128.9±10.7 % ID/g and 128.90 ± 10.74 % ID/g and the tumor (LNCaP-tumor xenograft; [4]) was 4.7±1.0 % ID/g and 4.69±0.95 % ID/g. For the same compound, the adrenal g. (LNCaP-tumor xenograft; 24 h p.i.) was 1.06 ± 0.24 % ID/g, the blood (LNCaP-tumor xenograft; 24 h p.i.) was 0.012 ± 0.01 % ID/g and the bone (LNCaP-tumor xenograft; 24 h p.i.) was 0.01 ± 0.01 % ID/g. It also gave a brain (LNCaP-tumor xenograft; 24 h p.i.) of 0.02 ± 0.01 % ID/g, a heart (LNCaP-tumor xenograft; 24 h p.i.) of 0.05 ± 0.03 % ID/g and an intestine (LNCaP-tumor xenograft; 24 h p.i.) of 0.12 ± 0.06 % ID/g. For the same compound, the liver (LNCaP-tumor xenograft; 24 h p.i.) was 0.05 ± 0.01 % ID/g, the lung (LNCaP-tumor xenograft; 24 h p.i.) was 0.16 ± 0.03 % ID/g and the muscle (LNCaP-tumor xenograft; 24 h p.i.) was 0.01 ± 0.01 % ID/g. It also gave a pancreas (LNCaP-tumor xenograft; 24 h p.i.) of 0.05 ± 0.02 % ID/g, a spleen (LNCaP-tumor xenograft; 24 h p.i.) of 1.94 ± 1.01 % ID/g and a stomach (LNCaP-tumor xenograft; 24 h p.i.) of 0.05 ± 0.02 % ID/g. For the same compound, the tumor (LNCaP-tumor xenograft; 24 h p.i., listed as [^177Lu]PSMA I&T) was 4.06±1.12 % ID/g, the “in vitro tumor cell retention” value (LNCaP cells [2]) was 62.8±0.4% and the Internalization (LNCaP cells [3]; listed as [^177Lu]PSMA I&T) was 75.5±1.6%. It also gave an Internalization (LNCaP cells [3]; listed as [^nat/177Lu]PSMA I&T) of 75.5 ± 1.6%.
